From publication PMC7179119, “A New Positron Emission Tomography Probe for Orexin Receptors Neuroimaging” (Molecules, 2020)
Where two headings read alike, the source gives them in different places.

Key:
Assay in all cases: PDSP off-target radioligand binding assay
5-HT1A = target: T1, 5-HT1A (Homo sapiens, UniProt P08908)
T1 construct: NIMH PDSP
T1 sequence (P08908 1-422): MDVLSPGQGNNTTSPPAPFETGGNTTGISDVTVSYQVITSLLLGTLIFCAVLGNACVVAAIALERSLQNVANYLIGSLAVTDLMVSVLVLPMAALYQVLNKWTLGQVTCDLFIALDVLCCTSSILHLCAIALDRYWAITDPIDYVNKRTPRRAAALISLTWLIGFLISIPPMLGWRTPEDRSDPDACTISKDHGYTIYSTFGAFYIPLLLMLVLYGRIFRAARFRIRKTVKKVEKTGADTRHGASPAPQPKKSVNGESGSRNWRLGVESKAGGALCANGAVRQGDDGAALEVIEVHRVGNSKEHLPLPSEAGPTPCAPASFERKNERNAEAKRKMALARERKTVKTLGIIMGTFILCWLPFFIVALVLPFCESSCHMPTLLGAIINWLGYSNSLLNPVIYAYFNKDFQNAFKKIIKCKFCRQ
How it was run: (§1)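 Read-out is percent inhibition of specific radioligand binding, from scintillation counting of filter-trapped bound ligand. The compound was present at 10 µM in quadruplicate wells, with radioligand close to Kd and 90 min room-temperature incubation in the dark.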

5-HT1D = target: T2, 5-HT1D (Homo sapiens, UniProt P28221)
T2 construct: NIMH PDSP
How it was run: as §1

5-HT2A = target: T3, 5-HT2A (Homo sapiens, UniProt P28223)
T3 construct: NIMH PDSP
How it was run: as §1

5-HT2C = target: T4, 5-HT2C (Homo sapiens, UniProt P28335)
T4 construct: NIMH PDSP
T4 sequence (P28335 33-458): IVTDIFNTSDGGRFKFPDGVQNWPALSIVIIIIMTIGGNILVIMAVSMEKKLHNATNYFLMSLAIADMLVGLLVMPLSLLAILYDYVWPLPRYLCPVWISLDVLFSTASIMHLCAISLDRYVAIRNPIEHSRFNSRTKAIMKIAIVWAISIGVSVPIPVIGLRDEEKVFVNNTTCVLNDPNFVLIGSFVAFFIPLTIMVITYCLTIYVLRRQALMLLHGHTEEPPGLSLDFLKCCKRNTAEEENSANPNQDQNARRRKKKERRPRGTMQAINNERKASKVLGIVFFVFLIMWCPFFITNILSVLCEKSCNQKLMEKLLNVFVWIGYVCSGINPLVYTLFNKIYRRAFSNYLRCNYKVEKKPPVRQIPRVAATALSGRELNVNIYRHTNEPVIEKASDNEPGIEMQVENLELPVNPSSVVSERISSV
How it was run: as §1

Alpha2B = target: T5, Alpha2B (Homo sapiens, UniProt P18089)
T5 construct: NIMH PDSP
T5 sequence (P18089 1-450): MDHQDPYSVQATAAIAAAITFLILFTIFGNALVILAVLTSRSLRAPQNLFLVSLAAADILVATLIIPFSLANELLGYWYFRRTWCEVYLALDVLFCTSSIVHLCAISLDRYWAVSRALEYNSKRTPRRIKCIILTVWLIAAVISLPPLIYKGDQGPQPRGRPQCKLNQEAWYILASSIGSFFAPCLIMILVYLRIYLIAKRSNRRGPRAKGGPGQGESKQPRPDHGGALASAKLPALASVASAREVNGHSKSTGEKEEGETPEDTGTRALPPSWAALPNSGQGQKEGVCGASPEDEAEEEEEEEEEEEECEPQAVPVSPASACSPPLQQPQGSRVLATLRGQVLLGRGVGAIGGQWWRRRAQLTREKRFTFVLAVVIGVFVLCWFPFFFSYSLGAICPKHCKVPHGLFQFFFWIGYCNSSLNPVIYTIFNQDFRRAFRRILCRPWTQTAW
How it was run: as §1

Alpha2C = target: T6, Alpha2C (Homo sapiens, UniProt P18825)
T6 construct: NIMH PDSP
T6 sequence (P18825 1-462): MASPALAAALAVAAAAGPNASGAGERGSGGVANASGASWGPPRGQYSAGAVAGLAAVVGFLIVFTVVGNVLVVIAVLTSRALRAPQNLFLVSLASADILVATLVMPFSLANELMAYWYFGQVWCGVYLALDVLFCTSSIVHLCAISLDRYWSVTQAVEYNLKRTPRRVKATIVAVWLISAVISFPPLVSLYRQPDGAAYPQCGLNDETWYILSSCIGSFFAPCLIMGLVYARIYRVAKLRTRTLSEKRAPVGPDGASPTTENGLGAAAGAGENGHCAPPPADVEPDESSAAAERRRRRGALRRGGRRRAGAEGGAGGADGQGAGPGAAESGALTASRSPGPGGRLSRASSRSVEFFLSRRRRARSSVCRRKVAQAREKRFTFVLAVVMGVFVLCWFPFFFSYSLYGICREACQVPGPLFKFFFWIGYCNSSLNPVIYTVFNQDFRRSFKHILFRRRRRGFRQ
How it was run: as §1

MOR = MOR (Homo sapiens, UniProt P35372)
How it was run: as §1

[1] = quadruplicate, read-out: Mean±SD % inhibition
[2] = replicate 1, read-out: % Inhibition 1
[3] = replicate 2, read-out: % Inhibition 2
[4] = replicate 3, read-out: % Inhibition 3
[5] = replicate 4, read-out: % Inhibition 4

T2 sequence (P28221 whole entry, species assumed): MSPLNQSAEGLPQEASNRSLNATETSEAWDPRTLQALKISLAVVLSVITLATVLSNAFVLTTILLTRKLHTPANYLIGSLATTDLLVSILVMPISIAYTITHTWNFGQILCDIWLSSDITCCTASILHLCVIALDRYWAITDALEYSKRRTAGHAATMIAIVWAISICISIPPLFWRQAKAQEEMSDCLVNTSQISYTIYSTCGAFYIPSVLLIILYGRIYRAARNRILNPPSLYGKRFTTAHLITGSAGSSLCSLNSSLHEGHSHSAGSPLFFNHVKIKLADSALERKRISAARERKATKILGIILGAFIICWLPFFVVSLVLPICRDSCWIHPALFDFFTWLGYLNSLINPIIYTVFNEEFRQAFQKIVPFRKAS
T3 sequence (P28223 whole entry, species assumed): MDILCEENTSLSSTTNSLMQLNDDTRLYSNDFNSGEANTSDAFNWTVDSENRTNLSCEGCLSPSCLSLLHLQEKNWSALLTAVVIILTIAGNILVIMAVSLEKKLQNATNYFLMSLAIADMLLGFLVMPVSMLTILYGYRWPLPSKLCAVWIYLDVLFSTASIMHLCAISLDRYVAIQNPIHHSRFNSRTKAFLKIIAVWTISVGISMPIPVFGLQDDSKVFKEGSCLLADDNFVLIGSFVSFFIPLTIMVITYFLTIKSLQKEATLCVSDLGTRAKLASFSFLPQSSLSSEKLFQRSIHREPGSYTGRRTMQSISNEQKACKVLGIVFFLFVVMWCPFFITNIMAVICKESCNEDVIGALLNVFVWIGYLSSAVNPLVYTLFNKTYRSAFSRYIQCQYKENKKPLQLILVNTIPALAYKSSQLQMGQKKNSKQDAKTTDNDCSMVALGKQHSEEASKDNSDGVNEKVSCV
MOR, sequence (P35372 whole entry): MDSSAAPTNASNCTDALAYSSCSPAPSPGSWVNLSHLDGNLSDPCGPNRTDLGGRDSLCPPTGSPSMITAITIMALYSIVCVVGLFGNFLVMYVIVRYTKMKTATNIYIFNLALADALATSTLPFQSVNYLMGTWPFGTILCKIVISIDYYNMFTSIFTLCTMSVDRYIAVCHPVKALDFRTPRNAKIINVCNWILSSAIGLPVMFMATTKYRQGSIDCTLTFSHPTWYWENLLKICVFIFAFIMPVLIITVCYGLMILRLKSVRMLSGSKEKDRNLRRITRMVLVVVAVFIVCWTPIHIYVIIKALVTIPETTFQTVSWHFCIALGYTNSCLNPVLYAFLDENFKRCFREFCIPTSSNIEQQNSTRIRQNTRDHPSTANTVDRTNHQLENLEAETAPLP

COc1ccnc(N2CCC3(CCCN(Cc4cn(C)c5ccccc45)C3=O)CC2)n1 [CW24]
inhibition at 10 µM (5-HT1A; [1]): -10.2 ± 8.4%
inhibition at 10 µM (5-HT1A; [2]): -4.55%
inhibition at 10 µM (5-HT1A; [3]): -4.08%
inhibition at 10 µM (5-HT1A; [4]): -22.1%
inhibition at 10 µM (5-HT1A; [5]): -9.84%
inhibition at 10 µM (5-HT1D; [1]): 23.5 ± 9.4%
inhibition at 10 µM (5-HT1D; [2]): 32.1%
inhibition at 10 µM (5-HT1D; [3]): 20%
inhibition at 10 µM (5-HT1D; [4]): 11.9%
inhibition at 10 µM (5-HT1D; [5]): 30.2%
inhibition at 10 µM (5-HT2A; [1]): 12.3 ± 15.4%
inhibition at 10 µM (5-HT2A; [2]): 25.7%
inhibition at 10 µM (5-HT2A; [3]): 20.1%
inhibition at 10 µM (5-HT2A; [4]): 12.8%
inhibition at 10 µM (5-HT2A; [5]): -9.45%
inhibition at 10 µM (5-HT2C; [1]): 14.3 ± 40.6%
inhibition at 10 µM (5-HT2C; [2]): 28.8%
inhibition at 10 µM (5-HT2C; [3]): -38.5%
inhibition at 10 µM (5-HT2C; [4]): 8.5%
inhibition at 10 µM (5-HT2C; [5]): 58.2%
inhibition at 10 µM (Alpha2B; [1]): -9.5 ± 13.4%
inhibition at 10 µM (Alpha2B; [2]): -8.15%
inhibition at 10 µM (Alpha2B; [3]): -23.6%
inhibition at 10 µM (Alpha2B; [4]): -14.5%
inhibition at 10 µM (Alpha2B; [5]): 8.29%
inhibition at 10 µM (Alpha2C; [1]): 11.1 ± 20.6%
inhibition at 10 µM (Alpha2C; [2]): 38.6%
inhibition at 10 µM (Alpha2C; [3]): 2.3%
inhibition at 10 µM (Alpha2C; [4]): -9.91%
inhibition at 10 µM (Alpha2C; [5]): 13.3%
inhibition at 10 µM (MOR; [1]): -2.04 ± 10.4%
inhibition at 10 µM (MOR; [2]): 5.06%
inhibition at 10 µM (MOR; [3]): -11.3%
inhibition at 10 µM (MOR; [4]): 8.74%
inhibition at 10 µM (MOR; [5]): -10.6%
